Columns and labels:
[1] = cumulative food intake, diet-induced obese mice (Model B), BioDaQ system; assay type: in vivo; conditions: Table 1; DIO male C57BL/6 mice, 1 mg/kg s.c., cumulative food intake after 6 h, relative to vehicle; negative = reduction
Protocol: (§1) Cumulative food intake after 6 h was determined for the PYY analogs in either lean (Model A) or diet-induced obese (DIO) (Model B) C57BL/6 mice in a BioDaQ system for continuous monitoring of food intake (Research Diets Inc., New Brunswick, N.J.). […] Mice were placed singly into the BioDaQ cages and acclimatized for a minimum of 6 days and were allowed ad libitum access to food and water. Approximately 1 hour prior to lights-out, animals were dosed subcutaneously with either vehicle (20 mM Acetate buffer, pH 4.9 or 20% DMSO in water) or analogs dissolved in vehicle (1 mg/kg) (8 animals per group). Once all animals have been dosed, feeder gates were opened providing ad-libitum access to food. Continuous food intake was monitored and collected for 15 hours. […] P-values <0.05 were considered to indicate a significant difference between treatment groups.

[2] = target: T1, human Neuropeptide Y receptor type 2 (Homo sapiens, UniProt P49146); experiment: melanophore assay, potency at human Neuropeptide Y receptor type 2; assay type: cell-based; conditions: Table 1, read-out: hNPY Y2 pEC50 (converted)
T1 construct: expressed in transfected cells; host or cells: melanophores (own knowledge: Xenopus laevis melanophores transfected with the receptor, as in the cited protocol)
T1 sequence (P49146 1-381): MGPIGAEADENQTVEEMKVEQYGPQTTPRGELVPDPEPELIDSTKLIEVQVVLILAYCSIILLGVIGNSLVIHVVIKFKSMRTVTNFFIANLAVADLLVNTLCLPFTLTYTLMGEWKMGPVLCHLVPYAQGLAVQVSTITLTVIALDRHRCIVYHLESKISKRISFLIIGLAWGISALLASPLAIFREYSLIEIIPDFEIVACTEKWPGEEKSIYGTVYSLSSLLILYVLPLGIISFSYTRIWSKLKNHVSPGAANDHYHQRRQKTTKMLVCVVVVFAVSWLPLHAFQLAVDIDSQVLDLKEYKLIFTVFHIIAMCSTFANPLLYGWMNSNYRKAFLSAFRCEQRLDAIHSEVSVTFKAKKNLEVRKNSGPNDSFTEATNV

[3] = cumulative food intake, lean mice (Model A), BioDaQ system; assay type: in vivo; conditions: Table 1; lean male C57BL/6 mice, 1 mg/kg s.c., cumulative food intake after 6 h, relative to vehicle; negative = reduction
Protocol: as §1

EC50 [2] [nM]	Compound	% reduction in food intake, model B [1] [%]	% reduction in food intake, model A [3] [%]
–	CC(C)C[C@H](NC(=O)[C@H](CO)NC(=O)[C@H](C)NC(=O)[C@H](Cc1ccc(O)cc1)NC(=O)[C@H](Cc1ccc(O)cc1)NC(=O)[C@H](CCCNC(=N)N)NC(=O)[C@H](CC(N)=O)NC(=O)[C@H](Cc1c[nH]c2ccccc12)NC(=O)[C@H](CCC(=O)O)NC(=O)[C@H](CCC(=O)O)NC(=O)[C@@H]1CCCN1C(=O)[C@H](CO)NC(=O)[C@H](C)NC(=O)[C@H](CC(=O)O)NC(=O)[C@H](CCCCN)NC(=O)CNC(=O)[C@@H]1CCCN1C(=O)[C@H](Cc1c[nH]cn1)NC(=O)[C@H](CCC(=O)O)NC(=O)[C@@H]1CCCN1C(=O)[C@H](CCCCN)NC(=O)[C@@H]1CCCN1)C(=O)N[C@@H](CCCNC(=N)N)C(=O)N[C@@H](CCCCN)C(=O)N[C@@H](Cc1ccc(O)cc1)C(=O)N[C@@H](CC(C)C)C(=O)N[C@@H](CC(N)=O)C(=O)N[C@@H](Cc1c[nH]c2ccccc12)C(=O)N[C@H](C(=O)N[C@H](C(=O)N[C@@H](CCCNC(=N)N)C(=O)N[C@@H](CCC(N)=O)C(=O)N[C@@H](CCCNC(=N)N)C(=O)N[C@@H](Cc1ccc(O)cc1)C(N)=O)[C@@H](C)O)C(C)C [Example 25]	−68	–
0.02	CC(C)C[C@H](NC(=O)[C@H](CC(=O)O)NC(=O)[C@H](C)NC(=O)[C@H](Cc1ccc(O)cc1)NC(=O)[C@H](Cc1ccc(O)cc1)NC(=O)[C@H](CCCNC(=N)N)NC(=O)[C@H](CC(N)=O)NC(=O)[C@H](Cc1c[nH]c2ccccc12)NC(=O)[C@H](CCC(=O)O)NC(=O)[C@H](CCC(=O)O)NC(=O)[C@@H]1CCCN1C(=O)[C@H](CO)NC(=O)[C@H](C)NC(=O)[C@H](CC(=O)O)NC(=O)[C@H](CCCCN)NC(=O)CNC(=O)[C@@H]1CCCN1C(=O)[C@H](C)NC(=O)[C@H](CCC(=O)O)NC(=O)[C@@H]1CCCN1C(=O)[C@H](CCCCN)NC(=O)[C@@H]1CCCN1)C(=O)N[C@@H](CCCNC(=N)N)C(=O)N[C@@H](CCCCN)C(=O)N[C@@H](Cc1ccc(O)cc1)C(=O)N[C@@H](CC(C)C)C(=O)N[C@@H](CC(N)=O)C(=O)N[C@@H](Cc1c[nH]c2ccccc12)C(=O)N[C@@H](CC(C)C)C(=O)N[C@H](C(=O)N[C@@H](CCCNC(=N)N)C(=O)N[C@@H](CCC(N)=O)C(=O)N[C@@H](CCCNC(=N)N)C(=O)N[C@@H](Cc1ccc(O)cc1)C(N)=O)[C@@H](C)O [Example 4]	–	−83

Source: patent US9441023B2, “Peptide YY analogs” (GlaxoSmithKline Intellectual Property Development Limited, priority 2013, dated 2016)
